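The compound was tested at five concentrations on cells cultured in 96-well plates, with a 48-hour exposure period. GI50 marks 50% less growth. TGI: total growth inhibition.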
Tests used:
Experiment in all cases: NCI-60 cell line screen, 48 h
786-0 renal = tested on: 786-0 renal
A498 renal = tested on: A498 renal
A549 NSCLC = tested on: A549 NSCLC
ACHN renal = tested on: ACHN renal
BT-549 breast = tested on: BT-549 breast
CAKI-1 renal = tested on: CAKI-1 renal
CCRF-CEM leukemia = tested on: CCRF-CEM leukemia
COLO 205 colon = tested on: COLO 205 colon
DU-145 prostate = tested on: DU-145 prostate
EKVX NSCLC = tested on: EKVX NSCLC
HCC-2998 colon = tested on: HCC-2998 colon
HCT-116 colon = tested on: HCT-116 colon
HCT-15 colon = tested on: HCT-15 colon
HL-60(TB) leukemia = tested on: HL-60(TB) leukemia
HOP-62 NSCLC = tested on: HOP-62 NSCLC
HOP-92 NSCLC = tested on: HOP-92 NSCLC
HS 578T breast = tested on: HS 578T breast
HT29 colon = tested on: HT29 colon
IGROV1 ovarian = tested on: IGROV1 ovarian
K-562 leukemia = tested on: K-562 leukemia
KM12 colon = tested on: KM12 colon
LOX IMVI melanoma = tested on: LOX IMVI melanoma
M14 melanoma = tested on: M14 melanoma
MALME-3M melanoma = tested on: MALME-3M melanoma
MCF7 breast = tested on: MCF7 breast
MDA-MB-231 breast = tested on: MDA-MB-231 breast
MDA-MB-435 = tested on: MDA-MB-435
MDA-MB-468 breast = tested on: MDA-MB-468 breast
MOLT-4 leukemia = tested on: MOLT-4 leukemia
NCI-H226 lung = tested on: NCI-H226 lung

`O=c1cc(-c2ccccc2)oc2cc(OCCCC[P+](c3ccccc3)(c3ccccc3)c3ccccc3)cc(O)c12` was tested, and the GI50 (786-0 renal) was 1860 nM, the TGI (786-0 renal) was 3.84 µM and the GI50 (A498 renal) was 2030 nM. It also gave a TGI (A498 renal) of 5.59 µM, a GI50 (A549 NSCLC) of 2820 nM and a TGI (A549 NSCLC) of 16.5 µM. It also gave a GI50 (ACHN renal) of 996 nM, a TGI (ACHN renal) of 2390 nM and a GI50 (BT-549 breast) of 542 nM. The TGI (BT-549 breast) was 1740 nM, the GI50 (CAKI-1 renal) was 1630 nM and the TGI (CAKI-1 renal) was 4.34 µM. The GI50 (CCRF-CEM leukemia) was 826 nM, the TGI (CCRF-CEM leukemia) was 4.75 µM and the GI50 (COLO 205 colon) was 1470 nM. For the same compound, the TGI (COLO 205 colon) was 3.01 µM, the GI50 (DU-145 prostate) was 813 nM and the TGI (DU-145 prostate) was 2970 nM. For the same compound, the GI50 (EKVX NSCLC) was 494 nM, the TGI (EKVX NSCLC) was 1860 nM and the GI50 (HCC-2998 colon) was 412 nM. It also gave a TGI (HCC-2998 colon) of 1540 nM, a GI50 (HCT-116 colon) of 863 nM and a TGI (HCT-116 colon) of 2120 nM. It also gave a GI50 (HCT-15 colon) of 1020 nM, a TGI (HCT-15 colon) of 2480 nM and a GI50 (HL-60(TB) leukemia) of 246 nM. For the same compound, the TGI (HL-60(TB) leukemia) was 1820 nM, the GI50 (HOP-62 NSCLC) was 1420 nM and the TGI (HOP-62 NSCLC) was 2870 nM. The GI50 (HOP-92 NSCLC) was 292 nM, the TGI (HOP-92 NSCLC) was 1130 nM and the GI50 (HS 578T breast) was 1320 nM. The TGI (HS 578T breast) was 4.27 µM, the GI50 (HT29 colon) was 2600 nM and the TGI (HT29 colon) was 11.3 µM. The GI50 (IGROV1 ovarian) was 785 nM, the TGI (IGROV1 ovarian) was 2360 nM and the GI50 (K-562 leukemia) was 326 nM. For the same compound, the TGI (K-562 leukemia) was greater than 100 µM, the GI50 (KM12 colon) was 738 nM and the TGI (KM12 colon) was 2130 nM. The GI50 (LOX IMVI melanoma) was 1130 nM, the TGI (LOX IMVI melanoma) was 2360 nM and the GI50 (M14 melanoma) was 408 nM. For the same compound, the TGI (M14 melanoma) was 1540 nM, the GI50 (MALME-3M melanoma) was 397 nM and the TGI (MALME-3M melanoma) was 1190 nM. It also gave a GI50 (MCF7 breast) of 499 nM, a TGI (MCF7 breast) of 2280 nM and a GI50 (MDA-MB-231 breast) of 1070 nM. For the same compound, the TGI (MDA-MB-231 breast) was 2570 nM, the GI50 (MDA-MB-435) was 356 nM and the TGI (MDA-MB-435) was 1390 nM. The GI50 (MDA-MB-468 breast) was 148 nM, the TGI (MDA-MB-468 breast) was 433 nM and the GI50 (MOLT-4 leukemia) was 771 nM. The TGI (MOLT-4 leukemia) was 3.24 µM and the GI50 (NCI-H226 lung) was 1500 nM.

Reference: PubChem BioAssay (NCI)
